Data: PubChem BioAssay (NCI)
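48-hour exposure; five concentrations; linearly interpolated endpoints. At the GI50, growth is halved. TGI: concentration producing complete growth inhibition.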

Assays:
Assay in all cases: NCI tumour cell line growth inhibition, 48 h
BT-549 breast = tested on: BT-549 breast
HCC-2998 colon = tested on: HCC-2998 colon
HCT-116 colon = tested on: HCT-116 colon
HOP-92 NSCLC = tested on: HOP-92 NSCLC
M14 melanoma = tested on: M14 melanoma
MCF7 breast = tested on: MCF7 breast
NCI-H226 lung = tested on: NCI-H226 lung
NCI-H522 lung = tested on: NCI-H522 lung
NCI/ADR-RES ovarian = tested on: NCI/ADR-RES ovarian
OVCAR-4 ovarian = tested on: OVCAR-4 ovarian
SF-268 CNS = tested on: SF-268 CNS
SF-539 CNS = tested on: SF-539 CNS
SN12C renal = tested on: SN12C renal
SNB-19 CNS = tested on: SNB-19 CNS
SR leukemia = tested on: SR leukemia
UACC-62 melanoma = tested on: UACC-62 melanoma

SMILES | TGI (BT-549 breast) | TGI (HCC-2998 colon) | TGI (HCT-116 colon) | TGI (HOP-92 NSCLC) | TGI (M14 melanoma) | TGI (MCF7 breast) | TGI (NCI-H226 lung) | TGI (NCI-H522 lung) | TGI (NCI/ADR-RES ovarian) | TGI (OVCAR-4 ovarian) | TGI (SF-268 CNS) | TGI (SF-539 CNS) | TGI (SN12C renal) | TGI (SNB-19 CNS) | TGI (SR leukemia) | TGI (UACC-62 melanoma) | GI50 (HCT-116 colon) | GI50 (SN12C renal) | GI50 (UACC-62 melanoma)
Cc1ccc(/C=C2\N=C(N3CCCC(CO)C3)NC2=O)cc1 (stereo not given) | > 100 µM | > 100 µM | > 100 µM | > 100 µM | > 100 µM | > 100 µM | > 100 µM | > 100 µM | > 100 µM | > 100 µM | > 100 µM | > 100 µM | > 100 µM | > 100 µM | > 100 µM | > 100 µM |  |  | 
CCNC(=S)N/N=C(\C)c1cccc(C)n1 | > 100 µM | 28.9 µM | 53.1 µM | 53.1 µM | 26 µM | > 100 µM | 47.9 µM | 26 µM | > 100 µM |  | 17.2 µM | 45.1 µM | > 100 µM | > 100 µM | > 100 µM | 41.3 µM |  |  | 
CC1(C)CC(=O)C2=C(C1)OC1(CC2c2ccc(Cl)cc2)CC(c2ccc(Cl)cc2)C2=C(CC(C)(C)CC2=O)O1 (stereo not given) | 50.6 µM | 38.5 µM | > 48.9 µM | 25.7 µM | > 52.1 µM | > 100 µM | 42.1 µM | 27.6 µM | > 73.3 µM | 30.6 µM | 42 µM | > 51.3 µM | > 84.2 µM | 54.6 µM | 87.2 µM | > 53.5 µM |  |  | 
COc1cc2c3c(cc(Cl)nc3c1OC)C(O)(CC(=O)c1ccccc1)C(=O)N2 (stereo not given) | 30.4 µM | 35.7 µM | 16.2 µM | 3.66 µM | 30.5 µM | 4.02 µM | 41.3 µM | 8.93 µM | 63.8 µM | 5.49 µM | 13.7 µM | 5.27 µM | 19.3 µM | 31.8 µM | > 29 µM | 15.9 µM |  |  | 
CN1CCN([C@H]2C[C@H]3[C@@H]4CC=C5C[C@@H](O)CC[C@]5(C)[C@H]4CC[C@]3(C)[C@H]2O)CC1 | > 100 µM | > 100 µM | > 80.6 µM | > 100 µM | 33.9 µM | > 63.2 µM | > 100 µM | > 100 µM | > 100 µM | > 56.6 µM | > 59.4 µM | > 56.5 µM | > 100 µM | > 62 µM | 53.3 µM | > 60.5 µM |  |  | 
C(#Cc1ccccc1)SC1=C(c2ccccc2)S/C(=C(\SC#Cc2ccccc2)c2ccccc2)S1 | > 100 µM | > 100 µM | > 100 µM | > 100 µM | > 100 µM | > 100 µM | > 100 µM | > 100 µM | > 100 µM | > 100 µM | > 100 µM | > 100 µM | > 100 µM | > 100 µM | > 100 µM | > 100 µM |  |  | 
COc1ccc2c(c1)CCC/C2=N\NS(=O)(=O)c1c(C)cc(C)cc1C | 77.2 µM | > 100 µM | 35.6 µM | 54.7 µM | > 100 µM | > 100 µM | 59.8 µM |  | 59.9 µM | 92.7 µM |  | 41.5 µM | 45.5 µM | > 100 µM | 49.5 µM | 42.6 µM |  |  | 
CSCCCNC(=O)[C@H](CSC)NC(=O)c1csc(CCNC(=O)[C@@H](NSc2ccccc2[N+](=O)[O-])C(C)O)n1 (stereo not given in full) | > 100 µM | > 100 µM | > 100 µM | > 100 µM | > 100 µM | > 100 µM | > 100 µM | > 100 µM | > 100 µM | > 100 µM | > 100 µM | > 100 µM | > 100 µM | > 100 µM | > 100 µM | > 100 µM |  |  | 
CCOC(=O)CCC(NC(=O)c1ccc(Nc2nc3ccccc3nc2C(=O)OCC)cc1)C(=O)OCC (stereo not given) | 25.7 µM | > 100 µM | 8.6 µM | 13.9 µM | > 100 µM | > 79 µM | 12.2 µM | 16.7 µM | 27 µM | 3.91 µM | 43.7 µM | 5.62 µM | > 40.7 µM | 14 µM | > 100 µM | 9.15 µM |  |  | 
Cn1cc(NC(=O)Nc2cc(C(=O)Nc3cc(C(=O)Nc4cc(S(=O)(=O)O)c5cc(S(=O)(=O)O)cc(S(=O)(=O)O)c5c4)n(C)c3)n(C)c2)cc1C(=O)Nc1cc(C(=O)Nc2cc(S(=O)(=O)O)c3cc(S(=O)(=O)O)cc(S(=O)(=O)O)c3c2)n(C)c1 | > 100 µM | > 100 µM | > 100 µM | > 100 µM | > 100 µM | > 100 µM | > 100 µM | > 100 µM | > 100 µM | > 100 µM | > 100 µM | > 100 µM | > 100 µM | > 100 µM | > 100 µM | > 100 µM |  |  | 
O=S(=O)(O)c1ccc2c(N=Nc3ccc(Sc4ccc(N=Nc5c(O)ccc6cc(S(=O)(=O)O)ccc56)cc4)cc3)c(O)ccc2c1 | > 100 µM | > 100 µM | > 100 µM | > 100 µM | > 100 µM | > 100 µM | > 100 µM | > 100 µM | > 100 µM | > 100 µM | > 100 µM | > 100 µM | > 100 µM | > 100 µM | > 100 µM | > 100 µM |  |  | 
CCOc1cc2c(cc1O)C(N)C[C@@H]1[C@@H]2CC[C@]2(C)[C@@H](O)CC[C@@H]12 (stereo not given in full) | > 100 µM | > 100 µM | > 100 µM | > 100 µM | 98.4 µM | > 100 µM | > 100 µM | > 100 µM | > 100 µM | > 100 µM | > 100 µM |  | > 100 µM | > 100 µM | 63 µM | > 100 µM | 39.7 µM | 58.6 µM | 18.7 µM
CCOC(=O)c1cc(Br)c(-c2cc(C)co2)[nH]1 | > 100 µM | > 100 µM | > 100 µM | > 100 µM | > 100 µM | > 100 µM | > 100 µM |  | > 100 µM | > 100 µM | > 100 µM | > 100 µM | > 100 µM | > 100 µM | > 100 µM | > 100 µM |  |  | 
COc1ccc(CNc2nc3ccccc3nc2C(=O)O)cc1 | > 100 µM | > 100 µM | > 100 µM | > 100 µM | > 100 µM | > 100 µM | > 100 µM | > 100 µM | > 100 µM |  | > 100 µM | > 100 µM | > 100 µM | > 100 µM | > 100 µM | > 100 µM |  |  | 
COc1ccc(-n2cnc3c(NC(Cc4ccccc4)C(=O)O)ncnc32)cc1 (stereo not given) | > 100 µM | > 100 µM | > 100 µM | > 100 µM | > 100 µM | > 100 µM | > 100 µM |  | > 100 µM | > 100 µM | > 100 µM |  | > 100 µM |  | > 100 µM | > 100 µM |  |  | 
CC(=O)OCC1OC(n2c(-c3ccccc3)c(N=Nc3ccc(C)cc3)c(C)c(C#N)c2=S)C(OC(C)=O)C(OC(C)=O)C1OC(C)=O (stereo not given) | 19 µM | > 100 µM | 15.4 µM | 0.856 µM | 16.8 µM | > 100 µM |  |  | 39.9 µM | 25.1 µM | 76.6 µM |  | 28.9 µM | 54.5 µM | > 100 µM |  |  |  | 
O=[N+]([O-])C(C=C(n1nnc2ccccc21)n1nnc2ccccc21)=C(n1nnc2ccccc21)n1nnc2ccccc21 | > 100 µM | > 100 µM | > 100 µM | > 100 µM | > 100 µM | > 100 µM | > 100 µM |  | > 100 µM |  | > 100 µM | > 100 µM | > 100 µM | > 100 µM | 66.6 µM | > 100 µM |  |  | 
O=C(Nc1ccc2ccccc2c1)c1cc2cc(CCl)ccc2oc1=O | > 100 µM | > 100 µM | > 100 µM | > 100 µM | > 100 µM | > 100 µM | > 100 µM | > 100 µM | > 100 µM | > 100 µM | 73.5 µM |  | > 100 µM | > 100 µM | > 100 µM | > 100 µM |  |  | 
O=C(Nc1ccc(Cl)cc1)c1cc(S(=O)(=O)Nc2n[nH]c(=O)n2-c2ccccc2)c(S)cc1Cl | > 100 µM | > 100 µM | > 100 µM | > 100 µM | > 100 µM | > 100 µM | > 100 µM |  | > 100 µM | > 100 µM | > 100 µM | > 100 µM | > 100 µM | > 100 µM | > 100 µM | > 100 µM |  |  | 
CCOC(=O)C(C/C=C/CO)N(C)C(=O)OC(C)(C)C (stereo not given) | > 100 µM |  | > 100 µM | > 100 µM | > 100 µM | > 100 µM | > 100 µM | 61.4 µM | > 100 µM | > 100 µM | > 100 µM | > 100 µM | > 100 µM | > 100 µM | > 100 µM | > 100 µM |  |  | 
O=C1C(c2c(O)[nH]c3ccc(S(=O)(=O)NCCO)cc23)=Nc2ccccc21 | 18.7 µM | > 100 µM | 16.2 µM | 82.4 µM | > 100 µM | 6.53 µM | > 100 µM | 4.73 µM | > 100 µM | 14.5 µM | 51 µM |  | > 100 µM | > 100 µM | 21.6 µM | > 100 µM |  |  | 
